Test results: patent US20230000813A1, “COMPOUND FOR THE TREATMENT OF BOVINE OR SWINE RESPIRATORY DISEASE” (Intervet Inc., priority 2016, published 2023)
Values after ≈ are worked out from the molar mass of the structure shown. Values joined by “and” are separate entries in the source; they are usually repeats but may differ in a detail not shown here. Identical values can stand only once. Like-named read-outs stand apart in the source and are kept apart here.

Legend:
[1] = test system: Pasteurella multocida PM 6391 (ATCC 43137, reference strain); assay: MIC, broth-microdilution (CLSI VET01-A4); assay type: cell-based
Procedure, shortened: (§1)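 Broth microdilution per CLSI VET01-A4 using doubling dilution series of test compound; results interpreted per CLSI VET01-S3. MIC recorded as lowest concentration giving no turbidity visible to the unaided eye.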

[2] = test system: Mannheimia haemolytica MH 6357 (M7/2, reference strain, cattle infection strain); assay: MIC, broth-microdilution (CLSI VET01-A4); assay type: cell-based
Procedure, shortened: as §1

[3] = test system: Pasteurella multocida PM 6267 (P 2225 (L386), reference strain, mouse infection strain); assay: MIC, broth-microdilution (CLSI VET01-A4); assay type: cell-based
Procedure, shortened: as §1

[4] = test system: Mannheimia haemolytica MH 6374 (ATCC 33396, reference strain); assay: MIC, broth-microdilution (CLSI VET01-A4); assay type: cell-based
Procedure, shortened: as §1

[5] = test system: Mannheimia haemolytica MH 12587 (1071, BRD field isolate, macrolide-resistance: erm+, E+); assay: MIC, broth-microdilution (CLSI VET01-A4); assay type: cell-based
Procedure, shortened: as §1

[6] = test system: Pasteurella multocida PM 12080 (IV102277-0093, BRD field isolate); assay: MIC, broth-microdilution (CLSI VET01-A4); assay type: cell-based
Procedure, shortened: as §1

[7] = Plasma and tissue concentrations and pharmacokinetics in infected calves (Example 8); assay type: in vivo, Holstein black pied cattle calves
Method: Three animals each were treated one hour after infection by subcutaneous (SC) administration of Compound 329 in an aqueous 30% (w/v) Captisol® solution for injection at a dose of 10 mg/kg BW.
Food consumption was measured. Single individual blood samples were collected from the 12 animals at the following time points: D-1 (predose), 30 minutes, 2, 4, 6, 24 h and at D2 (ca. 45 h) after administration. After the day 2 blood sampling, the infected cattle were slaughtered. The lungs were weighted. Lung states and lung scores were observed morphologically.
At necropsy from animals treated with test items or the positive control, samples of epithelial lining fluid (ELF), lung tissue, and additionally tissue of liver and kidney were collected. From each lung two bacteriological swaps were taken from the left and right bronchus.
Epithelial lining fluid was collected by inserting sterile paper strips caudally behind the tracheal bifurcation directly onto the bronchial mucous membrane in the left and right bronchus and allowed to moisten with bronchial fluid. The paper strip was left in place (resting on the bronchial mucosa) for approximately 1 minute before being placed back into the plastic container.
From each lung two tissue samples were collected by clipping from at least two locations, one from morphologically unchanged tissue, one from the edge of pathomorphologically changed areas.
Plasma, ELF, lung tissue and additional tissue samples were analyzed for concentrations of Compound 329 and Enrofloxacin/Ciprofloxacin respectively using a HPLC-MS/MS method.
An analysis of the measured plasma concentrations of C.

[8] = test system: Mannheimia haemolytica MH 13093 (XB0472-6014.1, BRD field isolate); assay: MIC, broth-microdilution (CLSI VET01-A4); assay type: cell-based
Procedure, shortened: (§2)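 Broth microdilution per CLSI VET01-A4 using doubling dilution series of compound. MIC taken as the lowest concentration with no turbidity visible to the unaided eye, interpreted per CLSI VET01-S3.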

[9] = test system: Mannheimia haemolytica MH 13065 (XB0446-6003.9, BRD field isolate); assay: MIC, broth-microdilution (CLSI VET01-A4); assay type: cell-based
Procedure, shortened: as §2

[10] = test system: 20 isolates of Histophilus (H.) somni; assay: MIC50/MIC90, broth-microdilution, European respiratory tract isolates; assay type: cell-based
Procedure, shortened: (§3)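 Isolates came from the respiratory tract of diseased swine and cattle in several European countries and were epidemiologically unrelated. MICs were determined by broth microdilution with doubling dilutions per CLSI VET01-A4, interpreted per VET01-S3. MIC is the lowest concentration with no visible turbidity.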

[11] = test system: 20 isolates of Bordetella (B.) bronchiseptica; assay: as above; assay type: cell-based
Procedure, shortened: as §3

[12] = test system: 40 isolates of Pasteurella (P.) multocida; assay: as above; assay type: cell-based
Procedure, shortened: as §3

[13] = test system: 40 isolates of Mannheimia (M.) haemolytica; assay: as above; assay type: cell-based
Procedure, shortened: as §3

[14] = test system: 20 isolates of Actinobacillus (A.) pleuropneumoniae; assay: as above; assay type: cell-based
Procedure, shortened: as §3

[15] = SC single 10 mg/kg in 30% Captisol, individual animals and mean, 10 mg/kg
[16] = plasma, SC 10 mg/kg, mean, Phoenix WinNonlin

CC(C)(N)C(NC(=O)c1ccc(C#Cc2ccc(CNC3CC3)cc2)cc1)C(=O)NO (stereo not drawn) [C. 329]
MIC PM 6391 ([1]; Pasteurella multocida PM 6391): <=0.1 μM | MIC ([1]; strain PM 6391): 0.063 µg/mL (≈ 0.15 µM) | MIC ([2]; Mannheimia haemolytica MH 6357, read-out: MIC MH 6357): 1.6 µM | MIC ([2]; strain MH 6357): 0.5 µg/mL | MIC PM 6267 ([3]; Pasteurella multocida PM 6267): <=0.1 μM | MIC ([3]; strain PM 6267): ≤0.016 µg/mL | MIC ([4]; Mannheimia haemolytica MH 6374, read-out: MIC MH 6374): 0.8 µM | MIC ([4]; strain MH 6374): 0.25 µg/mL | MIC MH 12587 ([5]; Mannheimia haemolytica MH 12587, macrolide-resistant): 1.6 µM (≈ 0.673 µg/mL) | MIC ([5]; strain MH 12587, macrolide-resistant): 0.5 µg/mL (≈ 1.19 µM) | MIC PM 12080 ([6]; Pasteurella multocida PM 12080): <=0.1 μM | MIC ([6]; strain PM 12080): 0.032 µg/mL (≈ 0.0761 µM) | compound concentrations in the tissue samples ([7]; SC 10 mg/kg, compared with plasma, in words): above the plasma concentration | detection in plasma and section tissue samples ([7]; SC 10 mg/kg, in words): detected at high concentrations | Concentration, Plasma 0.5 h [7, 15]: 2340 ng/mL and 1520 ng/mL and 1280 ng/mL | Concentration, Plasma 2 h [7, 15]: 1930 ng/mL and 1410 ng/mL and 2330 ng/mL | Concentration, Plasma 4 h [7, 15]: 1200 ng/mL and 856 ng/mL and 1310 ng/mL | Concentration, Plasma 6 h [7, 15]: 692 ng/mL and 928 ng/mL and 718 ng/mL | Concentration, Plasma 24 h [7, 15]: 146 ng/mL and 187 ng/mL and 176 ng/mL | Concentration, Plasma 48 h [7, 15]: 60.5 ng/mL and 57.4 ng/mL and 85.2 ng/mL | Concentration, Tissue (48 h) Kidney [7, 15]: 22800 ng/mL and 25500 ng/mL and 17100 ng/mL | Concentration, Tissue (48 h) Liver [7, 15]: 7760 ng/mL and 7850 ng/mL and 5130 ng/mL | Concentration, Tissue (48 h) Lung [7, 15]: 8290 ng/mL and 9410 ng/mL and 7570 ng/mL | Concentration, Tissue (48 h) ELF ([7]; epithelial lining fluid, SC single 10 mg/kg in 30% Captisol, individual animals and mean, 10 mg/kg): 320 ng/mL and 356 ng/mL and 1370 ng/mL | AUClast [7, 16]: 19434 ng·h/mL | Cmax [7, 16]: 2063 ng/mL | HL_Lambda_z (Half life time) [7, 16]: 11.1 h | MRTlast (Mean retention time till last measured value) [7, 16]: 9.7 h | Tmax [7, 16]: 1.0 h | Vz_F_obs [7, 16]: 7.8 L/kg | MIC [8]: 1.6 µM (≈ 0.673 µg/mL) | MIC [9]: 0.8 µM (≈ 0.336 µg/mL) | MIC50 [10]: 0.25 µg/mL (≈ 0.595 µM) | MIC90 [10]: 0.25 µg/mL (≈ 0.595 µM) | MIC50 [11]: 2 µg/mL (≈ 4.76 µM) | MIC90 [11]: 4 µg/mL (≈ 9.51 µM) | MIC50 [12]: 0.032 µg/mL (≈ 0.0761 µM) | MIC90 [12]: 0.032 µg/mL (≈ 0.0761 µM) | MIC50 [13]: 0.5 µg/mL (≈ 1.19 µM) | MIC90 [13]: 1 µg/mL (≈ 2.38 µM) | MIC50 [14]: 0.5 µg/mL (≈ 1.19 µM) | MIC90 [14]: 0.5 µg/mL (≈ 1.19 µM)
